Assay results: patent EP0938471B1, “THE PREPARATION AND USE OF ORTHO-SULFONAMIDO ARYL HYDROXAMIC ACIDS AS MATRIX METALLOPROTEINASE AND TACE INHIBITORS” (priority 1996, dated 1998)
Structures can show the parent of a compound that is named as a salt. Where two headings read alike, the source gives them in different places.

Key:
Assay type in all cases: biochemical
MMP-1 = biological target: T1, MMP-1 (Homo sapiens, UniProt P03956); assay: MMP-1 inhibition (thiopeptide or fluorescent peptide substrate assay); conditions: for IC50: read-out: MMP-1 IC50
T1 sequence (P03956 100-469): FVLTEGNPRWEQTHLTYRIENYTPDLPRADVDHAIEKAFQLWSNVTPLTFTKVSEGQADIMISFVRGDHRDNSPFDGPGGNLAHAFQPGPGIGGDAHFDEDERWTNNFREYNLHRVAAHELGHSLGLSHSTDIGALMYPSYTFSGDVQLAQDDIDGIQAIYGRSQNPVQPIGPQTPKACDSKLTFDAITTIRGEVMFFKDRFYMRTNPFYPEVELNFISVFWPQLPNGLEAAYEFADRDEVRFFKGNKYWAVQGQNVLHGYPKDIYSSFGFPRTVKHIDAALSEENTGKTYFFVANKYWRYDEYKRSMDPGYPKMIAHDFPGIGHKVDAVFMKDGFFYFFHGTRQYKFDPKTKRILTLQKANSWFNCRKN

MMP-9 = MMP-9 (Homo sapiens, UniProt P14780); assay: MMP-9 inhibition (thiopeptide or fluorescent peptide substrate assay)
MMP-9, sequence (P14780 94-707): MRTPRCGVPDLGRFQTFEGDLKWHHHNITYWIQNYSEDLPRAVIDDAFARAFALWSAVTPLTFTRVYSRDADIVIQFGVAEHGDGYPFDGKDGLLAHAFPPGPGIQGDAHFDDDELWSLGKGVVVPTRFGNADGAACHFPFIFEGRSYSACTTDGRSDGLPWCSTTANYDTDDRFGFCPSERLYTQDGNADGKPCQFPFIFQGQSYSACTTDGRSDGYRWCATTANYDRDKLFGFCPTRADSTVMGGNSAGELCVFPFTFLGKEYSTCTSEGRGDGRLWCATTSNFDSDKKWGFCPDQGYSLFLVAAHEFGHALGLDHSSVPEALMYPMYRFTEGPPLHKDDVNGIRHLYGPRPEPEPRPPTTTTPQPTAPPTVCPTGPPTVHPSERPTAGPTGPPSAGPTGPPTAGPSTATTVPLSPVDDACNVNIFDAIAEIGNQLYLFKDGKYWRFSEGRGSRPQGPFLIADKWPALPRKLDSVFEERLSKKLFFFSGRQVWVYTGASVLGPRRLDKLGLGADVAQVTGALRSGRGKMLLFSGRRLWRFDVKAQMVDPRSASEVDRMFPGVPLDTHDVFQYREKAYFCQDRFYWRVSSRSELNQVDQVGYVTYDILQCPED
Protocol: The enzyme activity is measured by the rate of the color increase. The thiopeptide substrate is made up fresh as a 20 mM stock in 100% DMSO and the DTNB is dissolved in 100% DMSO as a 100 mM stock and stored in the dark at room temperature. Both the substrate and DTNB are diluted together to 1 mM with substrate buffer (50 mM HEPES pH 7.5, 5 mM CaCl2) before use. […] Alternatively, a fluorescent peptide substrate is used. In this assay, the peptide substrate contains a fluorescent group and a quenching group. Upon cleavage of the substrate by an MMP, the fluorescence that is generated is quantitated on the fluorescence plate reader. […] The substrate is dissolved in methanol and stored frozen in 1 mM aliquots. For the assay, substrate and enzymes are diluted in HCBC buffer to the desired concentrations. Compounds are added to the 96 well plate containing enzyme and the reaction is started by the addition of substrate. […] For either the thiopeptide or fluorescent peptide assays, the slope of the line is calculated and represents the reaction rate. […] The mean (x±sem) of the control rate is calculated and compared for statistical significance (p<0.05) with drug-treated rates using Dunnett's multiple comparison test.

TACE = TACE (Homo sapiens, UniProt P78536); assay: TACE inhibition (fluorescent peptidyl substrate); conditions: for inhibition at 1 µM: at 1µM concentration
TACE, sequence (P78536 215-824): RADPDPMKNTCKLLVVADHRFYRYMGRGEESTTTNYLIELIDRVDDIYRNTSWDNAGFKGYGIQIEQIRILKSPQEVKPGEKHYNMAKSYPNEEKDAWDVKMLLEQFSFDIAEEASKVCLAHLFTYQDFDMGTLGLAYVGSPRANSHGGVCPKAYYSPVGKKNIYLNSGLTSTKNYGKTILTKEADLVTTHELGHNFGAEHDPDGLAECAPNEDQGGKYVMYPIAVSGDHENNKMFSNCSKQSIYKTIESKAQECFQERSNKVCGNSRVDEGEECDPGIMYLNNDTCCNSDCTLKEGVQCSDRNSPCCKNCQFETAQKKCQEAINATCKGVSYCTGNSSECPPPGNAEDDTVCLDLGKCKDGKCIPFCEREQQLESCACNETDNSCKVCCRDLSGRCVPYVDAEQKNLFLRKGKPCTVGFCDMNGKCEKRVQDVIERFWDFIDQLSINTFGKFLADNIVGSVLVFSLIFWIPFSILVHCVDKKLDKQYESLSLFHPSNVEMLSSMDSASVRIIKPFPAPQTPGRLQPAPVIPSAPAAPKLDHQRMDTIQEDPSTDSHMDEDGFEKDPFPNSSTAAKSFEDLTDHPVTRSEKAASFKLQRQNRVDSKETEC

MMP-13 = MMP-13 (Homo sapiens, UniProt P45452); assay: MMP-13 inhibition (thiopeptide or fluorescent peptide substrate assay)

| Molecule | IC50 (MMP-1) [nM] | IC50 (MMP-9; read-out: MMP-9 IC50) [nM] | IC50 (TACE; read-out: TACE IC50) [nM] | IC50 (MMP-13; read-out: MMP-13 IC50) [nM] | other results |
| --- | --- | --- | --- | --- | --- |
| 3-Methyl-2-[4-(pyridin-4-yloxy)-benzensulfonylamino]-N-hydroxy-benzamide [Example 417] | 3240 | 6.8 |  |  |  |
| COc1ccc(S(=O)(=O)N(Cc2ccccc2)c2ccccc2C(=O)NO)cc1 [Example 23, 2-[Benzyl-(4-methoxy-benzenesulfonyl)-amino]-N-hydroxy-benzamide] | 639 |  | > 1000 |  | IC50 (MMP-9): 650 nM |
| COc1ccc(S(=O)(=O)N(Cc2ccccc2)c2c(Cl)cccc2C(=O)NO)cc1 [Example 24, 2-[Benzyl-(4-methoxy-benzenesulfonyl)-amino]-3-chloro-N-hydroxy-benzamide] | 398 | 31 |  |  |  |
| COc1ccc(S(=O)(=O)N(Cc2ccccc2)c2cc(C)ccc2C(=O)NO)cc1 [Example 26, 2-[Benzyl-(4-methoxy-benzenesulfonyl)-amino]-N-hydroxy-4-methyl-benzamide] | 884 | 346 | > 1000 | 982 |  |
| COc1ccc(S(=O)(=O)N(Cc2ccccc2)c2cccc(C)c2C(=O)NO)cc1 [Example 27, 2-[Benzyl-(4-methoxy-benzenesulfonyl)-amino]-N-hydroxy-6-methyl-benzamide] | 1570 | 440 | > 1000 | 717 |  |
| COc1ccc(S(=O)(=O)N(Cc2ccccc2)c2c(C)cccc2C(=O)NO)cc1 [Example 28, 2-[Benzyl-(4-methoxy-benzenesulfonyl)-amino]-N-hydroxy-3-methyl-benzamide] |  |  | 460 |  | IC50 (MMP-13): 50 nM |
| COc1ccc(S(=O)(=O)N(Cc2ccccc2)c2c(OCC(=O)NO)cccc2C(=O)NO)cc1 [Example 54, 2-[Benzyl-(4-methoxy-benzenesulfonyl)-amino]-N-hydroxy-3-hydroxycarbamoylmethoxy-benzamide] | 24 | 3 |  |  | IC50 (MMP-13): 4 nM |
| CCCCC#Cc1cc(C)c(N(Cc2ccccc2)S(=O)(=O)c2ccc(OC)cc2)c(C(=O)NO)c1 [Example 77, 2-[Benzyl-(4-methoxy-benzenesulfonyl)-amino]-5-hex-1-ynyl-N-hydroxy-3-methyl-benzamide] |  | 131 |  |  |  |
| COc1ccc(S(=O)(=O)N(Cc2cccnc2)c2ccccc2C(=O)NO)cc1 [Example 85, N-Hydroxy-2-[(4-methoxy-benzenesulfonyl)-pyridin-3-ylmethyl-amino]-benzamide] |  | 663 | > 1000 |  |  |
| COc1ccc(S(=O)(=O)N(Cc2ccccc2)c2c(OC)cccc2C(=O)NO)cc1 [Example 101, 2-[Benzyl-(4-methoxy-benzenesulfonyl)-amino]-N-hydroxy-3-methoxy-benzamide] | 267 |  | 422 |  | IC50 (MMP-9): 23 nM |
| COc1ccc(S(=O)(=O)N(Cc2ccccc2)c2c(C(=O)NO)ccc(Cl)c2C)cc1 [Example 102, 2-[Benzyl-(4-methoxy-benzenesulfonyl)-amino]-4-chloro-N-hydroxy-3-methyl-benzamide] | 314 | 29 | 162 |  |  |
| COc1ccc(S(=O)(=O)N(Cc2ccccc2)c2c(C(=O)NO)cccc2C(F)(F)F)cc1 [Example 125, 2-[Benzyl-(4-methoxy-benzenesulfonyl)-amino]-N-hydroxy-3-trifluoromethyl-benzamide] | > 1000 |  | 300 |  | IC50 (MMP-13): 134 nM |
| COc1ccc(S(=O)(=O)N(Cc2ccccc2)c2c(C(=O)NO)cc(OC)c(OC)c2OC)cc1 [Example 156, 2-[Benzyl-(4-methoxy-benzenesulfonyl)-amino]-N-hydroxy-3,4,5-trimethoxy-benzamide] | > 1000 | 104 |  | 134 |  |
| COc1ccc(S(=O)(=O)N(Cc2cccnc2)c2c(C(=O)NO)cc(OC)c(OC)c2OC)cc1 [Example 158, N-Hydroxy-3,4,5-trimethoxy-2-[(4-methoxy-benzenesulfonyl)-pyridin-3-ylmethyl-amino]-benzamide] | > 1000 | 11 |  | 62 |  |
| COc1ccc(S(=O)(=O)N2CCCOc3cccc(C(=O)NO)c32)cc1 [Example 165, 5-(4-Methoxy-benzenesulfonyl)-2,3,4,5-tetrahydro-1,5-benzoxazepine-6-carboxylic acid hydroxyamide] |  | 286 |  | 350 |  |
| COc1ccc(S(=O)(=O)N2Cc3ccccc3COc3cccc(C(=O)NO)c32)cc1 [Example 166, 12-(4-Methoxy-benzenesulfonyl)-11,12-dihydro-6H-dibenz[b,f][1,4]oxazocine-1-carboxylic acid hydroxyamide] |  | 203 |  | > 300 |  |
| COc1ccc(S(=O)(=O)N2CCCCOc3cccc(C(=O)NO)c32)cc1 [Example 167, 6-(4-Methoxy-benzenesulfonyl)-3,4,5,6-tetrahydro-2H-1,6-benzoxazocine-7-carboxylic acid hydroxyamide] |  | 42 |  | 178 |  |
| COc1ccc(S(=O)(=O)N(C)c2c(CN3CCN(C)CC3)cccc2C(=O)NO)cc1 [Example 194, N-Hydroxy-2-[(4-methoxybenzenesulfonyl)-methylamino]-3-(4-methylpiperazin-1-ylmethyl)-benzamide] | 306 |  | 154 | 12 |  |
| CCN(CC)Cc1cc(C)c(N(Cc2ccccc2)S(=O)(=O)c2ccc(OC)cc2)c(C(=O)NO)c1 [Example 282, 2-[Benzyl-(4-methoxy-benzenesulfonyl)-amino]-5-diethylaminomethyl-N-hydroxy-3-methyl-benzamide] | 1050 |  |  | 113 | inhibition at 1 µM (TACE): 44% |
| CCOc1ccc(S(=O)(=O)N(Cc2ccccc2)c2c(C)cc(C)cc2C(=O)NO)cc1 [Example 302, 2-[Benzyl-(4-ethoxy-benzenesulfonyl)-amino]-N-hydroxy-3,5-dimethyl-benzamide] | 291 |  | 173 | 24 |  |
| CCCOc1ccc(S(=O)(=O)N(Cc2ccccc2)c2c(C)cc(C)cc2C(=O)NO)cc1 [Example 303, 2-[Benzyl-(4-propoxy-benzenesulfonyl)-amino]-N-hydroxy-3,5-dimethyl-benzamide] | 2780 | 64 |  | 104 |  |
| Cc1cc(C)c(N(Cc2ccccc2)S(=O)(=O)c2ccc(OC(C)C)cc2)c(C(=O)NO)c1 [Example 304, 2-[Benzyl-(4-isopropoxy-benzenesulfonyl)-amino]-N-hydroxy-3,5-dimethyl-benzamide] | 4100 |  |  | 305 | inhibition at 1 µM (TACE): 25% |
| COC(=O)c1cccc(C(=O)NO)c1N(Cc1cccnc1)S(=O)(=O)c1ccc(OC)cc1 [Example 369, N-Hydroxy-2-[(4-methoxy-benzenesulfonyl)-pyridin-3-ylmethyl-amino]-isophthalamic acid methyl ester] | 207 | 6.4 |  |  | IC50 (TACE): 38 nM |
| COc1ccc(S(=O)(=O)N(Cc2ccc(N3CCN(C)CC3)cc2)c2c(C)cccc2C(=O)NO)cc1 [Example 382, N-Hydroxy-2-{(4-methoxy-benzenesulfonyl)-[4-(4-methyl-piperazin-1-yl)-benzyl]-amino}-3-methyl-benzamide] |  | 6.5 |  |  | IC50 (MMP-13): 20 nM; IC50 (TACE): 146 nM |
| COc1ccc(S(=O)(=O)N(Cc2ccccc2)c2c(C(=O)NO)cccc2N(C)C)cc1 [Example 390, 2-[Benzyl-(4-methoxy-benzenesulfonyl)-amino]-3-dimethylamino-N-hydroxy-benzamide] |  |  |  |  | inhibition at 1 µM (MMP-1; read-out: MMP-1 % inhibition, footnote: 1µM): 19%; IC50 (MMP-13): 531 nM; inhibition at 1 µM (TACE): 39% |
| COc1ccc(S(=O)(=O)N(Cc2cccnc2)c2c(C)cc(-c3ccccc3)cc2C(=O)NO)cc1 [Example 397, 4-[(4-Methoxy-benzenesulfonyl)-pyridin-3-ylmethyl-amino]-5-methyl-biphenyl-3-carboxylic acid hydroxyamide hydrochloride salt] |  |  |  |  | IC50 (MMP-9): 3 nM; IC50 (TACE): 64 nM |
| COc1ccc(S(=O)(=O)N(Cc2cccnc2)c2c(C)cc(-c3ccsc3)cc2C(=O)NO)cc1 [Example 398, N-Hydroxy-2-[(4-methoxy-benzenesulfonyl)-pyridin-3-ylmethyl-amino]-3-methyl-5-thiophen-3-yl-benzamide hydrochloride salt] | 85 | 2 | 56 |  |  |
| COc1ccc(S(=O)(=O)N(Cc2cccnc2)c2c(C)cc(-c3cccc(C(F)(F)F)c3)cc2C(=O)NO)cc1 [Example 406, 4-[(4-Methoxy-benzenesulfonyl)-pyridin-3-ylmethyl-amino]-5-methyl-3'-trifluoromethyl-biphenyl-3-carboxylic acid hydroxyamide hydrochloride salt] |  | 1.1 |  |  |  |
| Cc1cccc(C(=O)NO)c1N(Cc1ccc(Cl)cc1)S(=O)(=O)c1ccc(-c2ccccn2)s1 [Example 407, 2-[(4-Chloro-benzyl)-(5-pyridin-2-yl-thiophene-2-sulfonyl)-amino]-N-hydroxy-3-methyl-benzamide] | 1690 | 199 |  | 35 |  |
| Cc1ccc(CN(c2c(C)cccc2C(=O)NO)S(=O)(=O)c2ccc(-c3ccccn3)s2)cc1C [Example 408, 2-[(3,4-Dimethyl-benzyl)-(5-pyridin-2-yl-thiophene-2-sulfonyl)-amino]-N-hydroxy-3-methyl-benzamide] | 3450 | 731 |  | 148 |  |
